Results reported in the NIST ThermoML archive (doi:10.1021/je700414c).
± gives the expanded uncertainty stated by the source.

Experiment: excess molar enthalpy (molar enthalpy of mixing); xn = mol fraction of the nth substance listed
Conditions: 303.15 K, 101 kPa, Liquid

CNC(C)=O [N-methylacetamide] + Cc1cc(C)cc(C)c1
excess molar enthalpy (x1 = 0.1463): 0.0817 ± 0.00454 kcal/mol
excess molar enthalpy (x1 = 0.2448): 0.0927 ± 0.00502 kcal/mol
excess molar enthalpy (x1 = 0.3271): 0.103 ± 0.0055 kcal/mol
excess molar enthalpy (x1 = 0.4098): 0.105 ± 0.0055 kcal/mol
excess molar enthalpy (x1 = 0.4989): 0.104 ± 0.0055 kcal/mol
excess molar enthalpy (x1 = 0.5612): 0.0978 ± 0.00526 kcal/mol
excess molar enthalpy (x1 = 0.6649): 0.0837 ± 0.00454 kcal/mol
excess molar enthalpy (x1 = 0.7283): 0.0758 ± 0.00406 kcal/mol
excess molar enthalpy (x1 = 0.8071): 0.0607 ± 0.00335 kcal/mol
excess molar enthalpy (x1 = 0.884): 0.0421 ± 0.00263 kcal/mol

CNC(C)=O [N-methylacetamide] + Cc1ccc(C)cc1
excess molar enthalpy (x1 = 0.1224): 0.0667 ± 0.00359 kcal/mol
excess molar enthalpy (x1 = 0.1703): 0.0696 ± 0.00382 kcal/mol
excess molar enthalpy (x1 = 0.2407): 0.0705 ± 0.00382 kcal/mol
excess molar enthalpy (x1 = 0.3474): 0.0705 ± 0.00382 kcal/mol
excess molar enthalpy (x1 = 0.4018): 0.0679 ± 0.00382 kcal/mol
excess molar enthalpy (x1 = 0.4704): 0.0624 ± 0.00359 kcal/mol
excess molar enthalpy (x1 = 0.6138): 0.0514 ± 0.00287 kcal/mol
excess molar enthalpy (x1 = 0.7126): 0.0402 ± 0.00239 kcal/mol
excess molar enthalpy (x1 = 0.7529): 0.0366 ± 0.00215 kcal/mol
excess molar enthalpy (x1 = 0.8617): 0.0198 ± 0.00143 kcal/mol

CNC(C)=O [N-methylacetamide] + Cc1ccccc1
excess molar enthalpy (x1 = 0.1142): 0.0619 ± 0.0043 kcal/mol
excess molar enthalpy (x1 = 0.2405): 0.0619 ± 0.0043 kcal/mol
excess molar enthalpy (x1 = 0.2954): 0.0571 ± 0.00406 kcal/mol
excess molar enthalpy (x1 = 0.377): 0.0528 ± 0.00382 kcal/mol
excess molar enthalpy (x1 = 0.4002): 0.0521 ± 0.00382 kcal/mol
excess molar enthalpy (x1 = 0.4365): 0.0478 ± 0.00359 kcal/mol
excess molar enthalpy (x1 = 0.4708): 0.0442 ± 0.00335 kcal/mol
excess molar enthalpy (x1 = 0.5227): 0.0428 ± 0.00335 kcal/mol
excess molar enthalpy (x1 = 0.5843): 0.039 ± 0.00311 kcal/mol
excess molar enthalpy (x1 = 0.6502): 0.0301 ± 0.00263 kcal/mol
excess molar enthalpy (x1 = 0.7076): 0.0253 ± 0.00239 kcal/mol
excess molar enthalpy (x1 = 0.7798): 0.0179 ± 0.00191 kcal/mol
excess molar enthalpy (x1 = 0.9016): 0.00741 ± 0.00143 kcal/mol

CNC(C)=O [N-methylacetamide] + c1ccccc1
excess molar enthalpy (x1 = 0.0848): 0.0511 ± 0.00478 kcal/mol
excess molar enthalpy (x1 = 0.1579): 0.0562 ± 0.00502 kcal/mol
excess molar enthalpy (x1 = 0.2196): 0.0576 ± 0.00526 kcal/mol
excess molar enthalpy (x1 = 0.2809): 0.0564 ± 0.00502 kcal/mol
excess molar enthalpy (x1 = 0.3924): 0.0516 ± 0.00478 kcal/mol
excess molar enthalpy (x1 = 0.4282): 0.0464 ± 0.0043 kcal/mol
excess molar enthalpy (x1 = 0.4628): 0.0421 ± 0.00406 kcal/mol
excess molar enthalpy (x1 = 0.495): 0.0392 ± 0.00382 kcal/mol
excess molar enthalpy (x1 = 0.5438): 0.0344 ± 0.00359 kcal/mol
excess molar enthalpy (x1 = 0.567): 0.0335 ± 0.00359 kcal/mol
excess molar enthalpy (x1 = 0.6331): 0.0294 ± 0.00335 kcal/mol
excess molar enthalpy (x1 = 0.766): 0.0172 ± 0.00263 kcal/mol
excess molar enthalpy (x1 = 0.8432): 0.0124 ± 0.00215 kcal/mol
excess molar enthalpy (x1 = 0.8931): 0.00837 ± 0.00191 kcal/mol

CNC=O [N-methylformamide] + Cc1ccc(C)cc1
excess molar enthalpy (x1 = 0.0589): 0.0696 ± 0.00382 kcal/mol
excess molar enthalpy (x1 = 0.0809): 0.0789 ± 0.0043 kcal/mol
excess molar enthalpy (x1 = 0.1371): 0.105 ± 0.0055 kcal/mol
excess molar enthalpy (x1 = 0.648): 0.117 ± 0.00621 kcal/mol
excess molar enthalpy (x1 = 0.7042): 0.105 ± 0.0055 kcal/mol
excess molar enthalpy (x1 = 0.7619): 0.0911 ± 0.00478 kcal/mol
excess molar enthalpy (x1 = 0.8196): 0.0722 ± 0.00406 kcal/mol
excess molar enthalpy (x1 = 0.8715): 0.0533 ± 0.00311 kcal/mol
excess molar enthalpy (x1 = 0.9536): 0.0241 ± 0.00167 kcal/mol

CNC=O [N-methylformamide] + Cc1ccccc1
excess molar enthalpy (x1 = 0.1531): 0.0975 ± 0.00526 kcal/mol
excess molar enthalpy (x1 = 0.1852): 0.102 ± 0.0055 kcal/mol
excess molar enthalpy (x1 = 0.2625): 0.11 ± 0.00574 kcal/mol
excess molar enthalpy (x1 = 0.3018): 0.112 ± 0.00598 kcal/mol
excess molar enthalpy (x1 = 0.3404): 0.115 ± 0.00598 kcal/mol
excess molar enthalpy (x1 = 0.3983): 0.115 ± 0.00598 kcal/mol
excess molar enthalpy (x1 = 0.4643): 0.116 ± 0.00598 kcal/mol
excess molar enthalpy (x1 = 0.4821): 0.114 ± 0.00598 kcal/mol
excess molar enthalpy (x1 = 0.5253): 0.11 ± 0.00574 kcal/mol
excess molar enthalpy (x1 = 0.5951): 0.103 ± 0.0055 kcal/mol
excess molar enthalpy (x1 = 0.6171): 0.102 ± 0.0055 kcal/mol
excess molar enthalpy (x1 = 0.645): 0.0961 ± 0.00502 kcal/mol
excess molar enthalpy (x1 = 0.7416): 0.0765 ± 0.00406 kcal/mol
excess molar enthalpy (x1 = 0.8178): 0.0574 ± 0.00335 kcal/mol
excess molar enthalpy (x1 = 0.9166): 0.0304 ± 0.00191 kcal/mol

CNC=O [N-methylformamide] + c1ccccc1
excess molar enthalpy (x1 = 0.0011): 0.00263 ± 0.000956 kcal/mol
excess molar enthalpy (x1 = 0.0019): 0.00454 ± 0.000956 kcal/mol
excess molar enthalpy (x1 = 0.1401): 0.081 ± 0.0043 kcal/mol
excess molar enthalpy (x1 = 0.2247): 0.0918 ± 0.00502 kcal/mol
excess molar enthalpy (x1 = 0.2851): 0.0968 ± 0.00526 kcal/mol
excess molar enthalpy (x1 = 0.3412): 0.0994 ± 0.00526 kcal/mol
excess molar enthalpy (x1 = 0.372): 0.101 ± 0.00526 kcal/mol
excess molar enthalpy (x1 = 0.428): 0.0997 ± 0.00526 kcal/mol
excess molar enthalpy (x1 = 0.4525): 0.0978 ± 0.00526 kcal/mol
excess molar enthalpy (x1 = 0.5333): 0.0927 ± 0.00502 kcal/mol
excess molar enthalpy (x1 = 0.6012): 0.0837 ± 0.00454 kcal/mol
excess molar enthalpy (x1 = 0.6365): 0.0796 ± 0.0043 kcal/mol
excess molar enthalpy (x1 = 0.7237): 0.065 ± 0.00359 kcal/mol
excess molar enthalpy (x1 = 0.8274): 0.0425 ± 0.00263 kcal/mol
